Results: patent US11000033B2, “Ketone or oxime compound, and herbicide” (NISSAN CHEMICAL CORPORATION, priority 2014, dated 2021)

Legend:
Type in all cases: in vivo
Lolium multiflorum Lam. = assay: Test Example 5: herbicidal effect by foliage application, plastic box (symbol K); details: 320 g/ha, 3 weeks after application
In short: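 Post-emergence spray; diluvial soil (sterilized), ~1.5 cm seed cover; greenhouse 25–30° C; 14-day-old plants; water-diluted emulsion at predetermined dose; visual score at 3 wk post-treatment.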

Monochoria vaginalis [1] = assay: Test Example 1: herbicidal activity, application before weed generation in submerged conditions (symbol C); details: application herbicide amount 320 g/ha
In short: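 Greenhouse growth at 25–30 °C lasted 3 weeks after treatment, when each weed was graded 0–5 by herbicidal ratio. Treatment was a diluted emulsion applied to the water surface of 4 cm-submerged alluvial soil on the sowing day.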

Chenopodium album = assay: Test Example 4: herbicidal effect by soil treatment (symbol O); details: application herbicide amount 320 g/ha
In short: (§1)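 Seeds were sown in sterilized diluvial soil, covered with about 1.5 cm of soil, and the soil surface was sprayed with a water-diluted emulsion of the compound at a predetermined rate. Plants grew in a greenhouse at 25° C. to 30° C.; effects were scored visually 3 weeks after application.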

corn = assay: Test Example 5: effect on crop by foliage application, plastic box (symbol c); details: 320 g/ha, 3 weeks after application
In short: (§2)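 Crop and weed seeds sown in spots in sterilized diluvial soil in plastic boxes and covered with about 1.5 cm soil. Plants raised in a greenhouse at 25° C. to 30° C. for foliar application.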

[2] = system: Echinochloa crus-galli var. crus-galli; assay: Test Example 3: herbicidal effect by foliage application, Wagner pot (symbol H); details: application herbicide amount 320 g/ha, Table 24
In short: (§3)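 Plants sown in submerged alluvial soil (water depth 0.1–0.5 cm) in a 25–30 °C greenhouse and grown 14 days. An emulsion of the compound diluted in water to a set herbicide amount was sprayed uniformly on foliage. Effect on each plant scored 3 weeks after application.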

Avena fatua = assay: Test Example 4: herbicidal effect by soil treatment (symbol I); details: application herbicide amount 320 g/ha
In short: as §1

Leptochloa chinensis = assay: Test Example 3: herbicidal effect by foliage application, Wagner pot (symbol D); details: application herbicide amount 320 g/ha, Table 24
In short: as §3

rapeseed = assay: Test Example 5: effect on crop by foliage application, plastic box (symbol g); details: 320 g/ha, 3 weeks after application
In short: as §2

Monochoria vaginalis [3] = assay: Test Example 2: herbicidal activity, application during weed generation in submerged conditions (symbol C); details: Table 23; application herbicide amount 320 g/ha; grade 0-5 by criteria of Test Example 1
In short: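 Seeds sown in flooded alluvial soil (4 cm water) were grown in a 25-30° C greenhouse. At the one- to two-leaf stage, diluted emulsion of compound was applied to the water surface at a predetermined rate. Effect was scored 3 weeks later.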

soybean = assay: Test Example 5: effect on crop by foliage application, plastic box (symbol d); details: 320 g/ha, 3 weeks after application
In short: as §2

Abutilon theophrasti = assay: Test Example 4: herbicidal effect by soil treatment (symbol M); details: application herbicide amount 320 g/ha
In short: as §1

Row | Compound | K: Lolium multiflorum Lam., herbicidal effect grade (Lolium multiflorum Lam.) | C (Monochoria vaginalis) herbicidal effect grade (Monochoria vaginalis [1]) | Herbicidal effect grade, O: Chenopodium album (Chenopodium album) | c: corn, effect on crop grade (corn) | H (Echinochloa crus-galli var. crus-galli) herbicidal effect grade [2] | Herbicidal effect grade, I: Avena fatua (Avena fatua) | D (Leptochloa chinensis) herbicidal effect grade (Leptochloa chinensis) | g: rapeseed, effect on crop grade (rapeseed) | Herbicidal effect grade, C: Monochoria vaginalis (Monochoria vaginalis [3]) | d: soybean, effect on crop grade (soybean) | Herbicidal effect grade, M: Abutilon theophrasti (Abutilon theophrasti) | O: Chenopodium album, herbicidal effect grade (Chenopodium album) | I: Avena fatua, herbicidal effect grade (Avena fatua) | M: Abutilon theophrasti, herbicidal effect grade (Abutilon theophrasti)
1 | CC(CC1CC(OC(=O)COc2ccccc2)=C(c2c(C)cc(-c3ccc(Cl)cc3)cc2C)C1=O)=NOCC(F)(F)F (mixture of isomers) [9-027] | 5 (Herbicidal ratio of 90% or more (almost completely withered)) | 1 (Herbicidal ratio of 5% or higher and lower than 20%) | 3 (Herbicidal ratio of 40% or higher and lower than 70%) | 5 (Herbicidal ratio of 90% or more (almost completely withered)) | 5 (Herbicidal ratio of 90% or more (almost completely withered)) | 4 (Herbicidal ratio of 70% or higher and lower than 90%) | 5 (Herbicidal ratio of 90% or more (almost completely withered)) | 4 (Herbicidal ratio of 70% or higher and lower than 90%) | 0 (Herbicidal ratio of 5% or lower (almost no effect)) | 0 (Herbicidal ratio of 5% or lower (almost no effect)) | 0 (Herbicidal ratio of 5% or lower (almost no effect)) |  |  | 
2 | CON=C(CC1CC(O)=C(c2c(C)cc(-c3ccccc3)cc2C)C1=O)C1CC1 (mixture of isomers) [9-028] | 5 (Herbicidal ratio of 90% or more (almost completely withered)) | 5 (Herbicidal ratio of 90% or more (almost completely withered)) | 0 (Herbicidal ratio of 5% or lower (almost no effect)) | 5 (Herbicidal ratio of 90% or more (almost completely withered)) | 5 (Herbicidal ratio of 90% or more (almost completely withered)) | 3 (Herbicidal ratio of 40% or higher and lower than 70%) | 5 (Herbicidal ratio of 90% or more (almost completely withered)) | 4 (Herbicidal ratio of 70% or higher and lower than 90%) | 4 (Herbicidal ratio of 70% or higher and lower than 90%) | 1 (Herbicidal ratio of 5% or higher and lower than 20%) | 0 (Herbicidal ratio of 5% or lower (almost no effect)) |  |  | 
3 | COC(=O)C(C(=O)C1CC1)C1CC(O)=C(c2c(C)cc(Br)cc2C)C1=O (mixture of isomers) [10-002] | 5 (Herbicidal ratio of 90% or more (almost completely withered)) | 0 (Herbicidal ratio of 5% or lower (almost no effect)) | 0 (Herbicidal ratio of 5% or lower (almost no effect)) | 5 (Herbicidal ratio of 90% or more (almost completely withered)) | 5 (Herbicidal ratio of 90% or more (almost completely withered)) | 3 (Herbicidal ratio of 40% or higher and lower than 70%) | 5 (Herbicidal ratio of 90% or more (almost completely withered)) | 0 (Herbicidal ratio of 5% or lower (almost no effect)) | 0 (Herbicidal ratio of 5% or lower (almost no effect)) | 0 (Herbicidal ratio of 5% or lower (almost no effect)) | 0 (Herbicidal ratio of 5% or lower (almost no effect)) |  |  | 
4 | CON=C(C)CC1(C)CC(O)=C(c2c(C)cc(C)cc2C)C1=O (mixture of isomers) [11-002] | 5 (Herbicidal ratio of 90% or more (almost completely withered)) | 0 (Herbicidal ratio of 5% or lower (almost no effect)) | 0 (Herbicidal ratio of 5% or lower (almost no effect)) | 2 (Herbicidal ratio of 20% or higher and lower than 40%) | 5 (Herbicidal ratio of 90% or more (almost completely withered)) | 3 (Herbicidal ratio of 40% or higher and lower than 70%) | 5 (Herbicidal ratio of 90% or more (almost completely withered)) | 4 (Herbicidal ratio of 70% or higher and lower than 90%) | 0 (Herbicidal ratio of 5% or lower (almost no effect)) | 1 (Herbicidal ratio of 5% or higher and lower than 20%) | 0 (Herbicidal ratio of 5% or lower (almost no effect)) |  |  | 
5 | CON=C(C)CC1C(O)=C(c2c(C)cc(C)cc2C)C(=O)C1C (mixture of isomers) [12-002] | 5 (Herbicidal ratio of 90% or more (almost completely withered)) | 2 (Herbicidal ratio of 20% or higher and lower than 40%) | 0 (Herbicidal ratio of 5% or lower (almost no effect)) | 5 (Herbicidal ratio of 90% or more (almost completely withered)) | 5 (Herbicidal ratio of 90% or more (almost completely withered)) | 4 (Herbicidal ratio of 70% or higher and lower than 90%) | 5 (Herbicidal ratio of 90% or more (almost completely withered)) | 5 (Herbicidal ratio of 90% or more (almost completely withered)) | 1 (Herbicidal ratio of 5% or higher and lower than 20%) | 1 (Herbicidal ratio of 5% or higher and lower than 20%) | 0 (Herbicidal ratio of 5% or lower (almost no effect)) |  |  | 
6 | CCC(CC1CC(O)=C(c2c(C)cc(Br)cc2OC)C1=O)=NOC (mixture of isomers) [13-001] | 5 (Herbicidal ratio of 90% or more (almost completely withered)) | 0 (Herbicidal ratio of 5% or lower (almost no effect)) |  | 5 (Herbicidal ratio of 90% or more (almost completely withered)) | 5 (Herbicidal ratio of 90% or more (almost completely withered)) |  | 5 (Herbicidal ratio of 90% or more (almost completely withered)) | 4 (Herbicidal ratio of 70% or higher and lower than 90%) | 0 (Herbicidal ratio of 5% or lower (almost no effect)) | 0 (Herbicidal ratio of 5% or lower (almost no effect)) |  | 0 (Herbicidal ratio of 5% or lower (almost no effect)) | 2 (Herbicidal ratio of 20% or higher and lower than 40%) | 0 (Herbicidal ratio of 5% or lower (almost no effect))
7 | CCC(CC1CC(O)=C(c2c(C)cc(C)cc2OC)C1=O)=NOC (mixture of isomers) [13-003] | 5 (Herbicidal ratio of 90% or more (almost completely withered)) | 0 (Herbicidal ratio of 5% or lower (almost no effect)) |  | 5 (Herbicidal ratio of 90% or more (almost completely withered)) | 5 (Herbicidal ratio of 90% or more (almost completely withered)) |  | 5 (Herbicidal ratio of 90% or more (almost completely withered)) | 4 (Herbicidal ratio of 70% or higher and lower than 90%) | 3 (Herbicidal ratio of 40% or higher and lower than 70%) | 3 (Herbicidal ratio of 40% or higher and lower than 70%) |  | 0 (Herbicidal ratio of 5% or lower (almost no effect)) | 1 (Herbicidal ratio of 5% or higher and lower than 20%) | 4 (Herbicidal ratio of 70% or higher and lower than 90%)
